Results: patent US6358885B1, “Substituted phenylheterocyclic herbicides” (Mississippi State University, priority 1992, dated 2002)

Assays:
pigweed = experiment: Test C preemergence/postemergence greenhouse plant response rating 0 to 100; assay type: in vivo, Amaranthusretroflexus; settings: POSTEMERGENCE; for Plant response rating Pigweed: 0 to 100 scale
Procedure, shortened: (§1)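 Compounds in non-phytotoxic solvent went onto sandy loam before emergence (seeded one day earlier) or onto plants at the one-to-four leaf stage. Duck salad was treated via flood water (~2.5 cm, maintained) over silt loam.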

giant foxtail [1] = experiment: as above; assay type: in vivo, Setaria faberii; settings: POSTEMERGENCE; for Plant response rating, Giant foxtail: 0 to 100 scale
Procedure, shortened: as §1

duck salad = experiment: Test C flood test plant response rating 0 to 100; assay type: in vivo, Heteranthera limosa; settings: for Plant response rating Duck salad: flood test species listed under POSTEMERGENCE, 0 to 100 scale
Procedure, shortened: as §1

soybean = experiment: Test C preemergence/postemergence greenhouse plant response rating 0 to 100; assay type: in vivo, Glycine max; settings: POSTEMERGENCE; for Plant response rating, Soybean: 0 to 100 scale
Procedure, shortened: as §1

cheatgrass = experiment: Test B preemergence/postemergence greenhouse plant response rating 0 to 10; assay type: in vivo, Bromus secalinus; settings: 0 to 10 scale
Procedure, shortened: (§2)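 Both application timings were run together: seeds got compound preemergence, and established seedlings (two to eighteen cm) got it postemergence. Non-phytotoxic solvent carried the chemical. Ratings are visual, versus controls, at twelve to sixteen days.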

giant foxtail [2] = experiment: as above; assay type: in vivo, Setaria faberii; settings: 0 to 10 scale
Procedure, shortened: as §2

lambsquarters = experiment: Test C preemergence/postemergence greenhouse plant response rating 0 to 100; assay type: in vivo, Chenopodium album; settings: POSTEMERGENCE; for Plant response rating Lambsquarters: 0 to 100 scale
Procedure, shortened: as §1

chickweed = experiment: as above; assay type: in vivo, Stellaria media; settings: POSTEMERGENCE; for Plant response rating, Chickweed: 0 to 100 scale
Procedure, shortened: as §1

bedstraw = experiment: Test B preemergence/postemergence greenhouse plant response rating 0 to 10; assay type: in vivo, Galium aparine; settings: 0 to 10 scale
Procedure, shortened: as §2

velvetleaf = experiment: Test C preemergence/postemergence greenhouse plant response rating 0 to 100; assay type: in vivo, Abutilon theophrasti; settings: POSTEMERGENCE; for Plant response rating, Velvetleaf: 0 to 100 scale
Procedure, shortened: as §1

umbrella sedge = experiment: Test C flood test plant response rating 0 to 100; assay type: in vivo, Cyperus difformis; settings: for Plant response rating Umbrella sedge: flood test species listed under POSTEMERGENCE, 0 to 100 scale
Procedure, shortened: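 Compounds in non-phytotoxic solvent applied preemergence to sandy loam one day after planting, postemergence at the 1–4 leaf stage, or to ~2.5 cm floodwater over silt loam.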

rape = experiment: Test B preemergence/postemergence greenhouse plant response rating 0 to 10; assay type: in vivo, Brassica napus; settings: 0 to 10 scale
Procedure, shortened: as §2

cotton [3] = experiment: as above; assay type: in vivo, Gossypium hirsutum; settings: 0 to 10 scale
Procedure, shortened: as §2

morningglory = experiment: as above; assay type: in vivo, Ipomoea hederacea; settings: 0 to 10 scale
Procedure, shortened: as §2

cocklebur = experiment: as above; assay type: in vivo, Xanthium pensylvanicum; settings: 0 to 10 scale
Procedure, shortened: as §2

barley = experiment: Test C preemergence/postemergence greenhouse plant response rating 0 to 100; assay type: in vivo, Hordeum vulgare; settings: POSTEMERGENCE; for Plant response rating Barley Igri: 0 to 100 scale
Procedure, shortened: as §1

crabgrass = experiment: Test B preemergence/postemergence greenhouse plant response rating 0 to 10; assay type: in vivo, Digitaria spp.; settings: 0 to 10 scale
Procedure, shortened: as §2

cotton [4] = experiment: Test C preemergence/postemergence greenhouse plant response rating 0 to 100; assay type: in vivo, Gossypium hirsutum; settings: POSTEMERGENCE; for Plant response rating, Cotton: 0 to 100 scale
Procedure, shortened: as §1

[5] = POSTEMERGENCE section, flood test, Rate 4 g/ha
[6] = Rate 16 g/ha, under POSTEMERGENCE head (flood test species)

COC(=O)c1cc(-c2nn3c(c2Cl)CCCC3)c(F)cc1Cl [Compound 43]
Plant response rating Pigweed (pigweed; 62 g/ha): 100 | Plant response rating Pigweed (pigweed; 250 g/ha): 100 | Plant response rating (0 to 100), Pigweed (pigweed; Rate 4 g/ha): 90 | Plant response rating (0 to 100), Pigweed (pigweed; Rate 16 g/ha): 100 | Plant response rating, Giant foxtail (giant foxtail [1]; 62 g/ha): 50 | Plant response rating, Giant foxtail (giant foxtail [1]; 250 g/ha): 85 | Plant response rating (0 to 100), Giant foxtail (giant foxtail [1]; Rate 4 g/ha): 40 | Plant response rating (0 to 100), Giant foxtail (giant foxtail [1]; Rate 16 g/ha): 50 | Plant response rating (0 to 100), Duck salad (duck salad; [5]): 0 | Plant response rating (0 to 100), Duck salad (duck salad; [6]): 0 | Plant response rating Duck salad (duck salad; 62 g/ha): 25 | Plant response rating Duck salad (duck salad; 250 g/ha): 45 | Plant response rating, Soybean (soybean; 62 g/ha): 70 | Plant response rating, Soybean (soybean; 250 g/ha): 90 | Plant response rating (0 to 100), Soybean (soybean; Rate 4 g/ha): 40 | Plant response rating (0 to 100), Soybean (soybean; Rate 16 g/ha): 50 | Plant response rating, Cheatgrass (cheatgrass; POSTEMERGENCE, Rate 50 g/ha): 6 | Plant response rating, Cheatgrass (cheatgrass; POSTEMERGENCE, Rate 200 g/ha): 9 | Plant response rating, Cheatgrass (cheatgrass; PREEMERGENCE, Rate 50 g/ha): 2 | Plant response rating, Cheatgrass (cheatgrass; Rate 200 g/ha, PREEMERGENCE): 3 | Plant response rating, Giant foxtail (giant foxtail [2]; POSTEMERGENCE, Rate 50 g/ha): 5 | Plant response rating, Giant foxtail (giant foxtail [2]; PREEMERGENCE, Rate 50 g/ha): 0 | Plant response rating, Giant foxtail (giant foxtail [2]; Rate 200 g/ha, POSTEMERGENCE): 6 | Plant response rating, Giant foxtail (giant foxtail [2]; Rate 200 g/ha, PREEMERGENCE): 0 | Plant response rating Lambsquarters (lambsquarters; 62 g/ha): 100 | Plant response rating Lambsquarters (lambsquarters; 250 g/ha): 100 | Plant response rating (0 to 100), Lambsquarters (lambsquarters; Rate 4 g/ha): 90 | Plant response rating (0 to 100), Lambsquarters (lambsquarters; Rate 16 g/ha): 100 | Plant response rating, Chickweed (chickweed; 62 g/ha): 90 | Plant response rating, Chickweed (chickweed; 250 g/ha): 100 | Plant response rating (0 to 100), Chickweed (chickweed; Rate 4 g/ha): 60 | Plant response rating (0 to 100), Chickweed (chickweed; Rate 16 g/ha): 80 | Plant response rating, Bedstraw (bedstraw; POSTEMERGENCE, Rate 50 g/ha): 10 | Plant response rating, Bedstraw (bedstraw; POSTEMERGENCE, Rate 200 g/ha): 10 | Plant response rating, Bedstraw (bedstraw; PREEMERGENCE, Rate 50 g/ha): 0 | Plant response rating, Bedstraw (bedstraw; Rate 200 g/ha, PREEMERGENCE): 9 | Plant response rating, Velvetleaf (velvetleaf; 62 g/ha): 100 | Plant response rating, Velvetleaf (velvetleaf; 250 g/ha): 100 | Plant response rating (0 to 100), Velvetleaf (velvetleaf; Rate 4 g/ha): 50 | Plant response rating (0 to 100), Velvetleaf (velvetleaf; Rate 16 g/ha): 100 | Plant response rating (0 to 100), Umbrella sedge (umbrella sedge; [5]): 0 | Plant response rating (0 to 100), Umbrella sedge (umbrella sedge; [6]): 0 | Plant response rating Umbrella sedge (umbrella sedge; 62 g/ha): 60 | Plant response rating Umbrella sedge (umbrella sedge; 250 g/ha): 70 | Plant response rating, Rape (rape; POSTEMERGENCE, Rate 50 g/ha): 9 | Plant response rating, Rape (rape; PREEMERGENCE, Rate 50 g/ha): 0 | Plant response rating, Rape (rape; Rate 200 g/ha, POSTEMERGENCE): 10 | Plant response rating, Rape (rape; Rate 200 g/ha, PREEMERGENCE): 9 | Plant response rating, Cotton (cotton [3]; POSTEMERGENCE, Rate 50 g/ha): 10 | Plant response rating, Cotton (cotton [3]; POSTEMERGENCE, Rate 200 g/ha): 10 | Plant response rating, Cotton (cotton [3]; PREEMERGENCE, Rate 50 g/ha): 0 | Plant response rating, Cotton (cotton [3]; Rate 200 g/ha, PREEMERGENCE): 1 | Plant response rating, Morningglory (morningglory; POSTEMERGENCE, Rate 50 g/ha): 10 | Plant response rating, Morningglory (morningglory; PREEMERGENCE, Rate 50 g/ha): 0 | Plant response rating, Morningglory (morningglory; Rate 200 g/ha, POSTEMERGENCE): 10 | Plant response rating, Morningglory (morningglory; Rate 200 g/ha, PREEMERGENCE): 0 | Plant response rating, Cocklebur (cocklebur; POSTEMERGENCE, Rate 50 g/ha): 8 | Plant response rating, Cocklebur (cocklebur; POSTEMERGENCE, Rate 200 g/ha): 10 | Plant response rating, Cocklebur (cocklebur; PREEMERGENCE, Rate 50 g/ha): 0 | Plant response rating, Cocklebur (cocklebur; Rate 200 g/ha, PREEMERGENCE): 0 | Plant response rating Barley Igri (barley; 62 g/ha): 50 | Plant response rating Barley Igri (barley; 250 g/ha): 60 | Plant response rating (0 to 100), Barley Igri (barley; Rate 4 g/ha): 30 | Plant response rating (0 to 100), Barley Igri (barley; Rate 16 g/ha): 40 | Plant response rating, Crabgrass (crabgrass; POSTEMERGENCE, Rate 50 g/ha): 4 | Plant response rating, Crabgrass (crabgrass; PREEMERGENCE, Rate 50 g/ha): 0 | Plant response rating, Crabgrass (crabgrass; Rate 200 g/ha, PREEMERGENCE): 0 | Plant response rating, Cotton (cotton [4]; 62 g/ha): 100 | Plant response rating, Cotton (cotton [4]; 250 g/ha): 100 | Plant response rating (0 to 100), Cotton (cotton [4]; Rate 4 g/ha): 90 | Plant response rating (0 to 100), Cotton (cotton [4]; Rate 16 g/ha): 90
